Where “and” joins values, the source holds several entries; their conditions need not be identical. Equal entries are not always repeated.
Tests used:
Assay in all cases: MTT cytotoxicity assay (Example 1)
HEY = assay type: cell-based, human; settings: 72 h
Text: (§1) Human breast cancer cells MDA-MB-435 were purchased from the American Type Culture Collection (Manassas, Va.). The HCT116 p53+/+ and HCT116 p53−/− cells were kindly provided by Dr. Bert Vogelstein (Johns Hopkins Medical Institutions, Baltimore, Md.). The human ovarian carcinoma cell line (HEY) which is naturally resistant to cisplatin, was kindly provided by Dr. Louis Dubeau, University of Southern California (USC) Norris Cancer Center, and NIH3T3 normal mouse fibroblast cells were kindly provided by Dr. Michael Press from USC. HEY and NIH3T3 cells were maintained as monolayer cultures in RPMI, HCT 116 cells in McCoy1s5A media and MDA-MB 435 in DMEM. Media were purchased from (Mediatech, Virginia) and supplemented with 10% fetal bovine serum (Gemini-Bioproducts, Woodland, Calif.), 2 mM L-glutamine and 5% Penicillin/streptomycin from Bio whittaker were purchased from VWR. Cells were incubated at 37° C. in a humidified atmosphere of 5% CO2. To remove the adherent cells from the flask for passaging and counting, cells were washed with PBS without calcium or magnesium, incubated with a small volume of 0.25% trypsin-EDTA solution (Sigma-Aldrich, St. Louis, Mo.) for 5-10 min, and washed with culture medium and centrifuged. All experiments were performed using cells at exponential growth stage. Cells were routinely checked for mycoplasma contamination using a PCR-based assay (Stratagene, Tex., USA).
(§2) Stock solutions (10 mM) of all compounds were prepared in DMSO and stored at −20° C. Further dilutions were made fresh in PBS or cell-culture media right before cell treatment.
(§3) Cytotoxicity was assessed by a 3-(4,s-dimethylthiazol-2-yl)-2,5-diphenyltetrazolium bromide (MTT) assay as previously described.^24 Briefly, cells were seeded in 96-well microtiter plates and allowed to attach overnight. Cells were subsequently treated with continuous exposure to the corresponding drug for 72 h. A MTT solution (at a final concentration of 0.5 mglml) was added to each well, and cells were incubated for 4 h at 37° C. After removal of the medium, DMSO was added and the absorbance was read at 570 nm. All assays were done in triplicate. The IC50 was then determined for each drug from a plot of log (drug concentration) versus percentage of cells killed.

MDA-MB-435 = assay type: cell-based, human
Text: as §1, §2, §3

NIH3T3 = assay type: cell-based, mouse
Text: as §1, §2, §3

HCT116 p53+/+ = assay type: cell-based; settings: MTT, 72 h
Text: as §1, §2, §3

HCT116 p53−/− = assay type: cell-based; settings: MTT, 72 h
Text: as §1, §2, §3

Row | SMILES | IC50 (HEY; Homo sapiens) [µM] | IC50 (MDA-MB-435; Homo sapiens, MDA-MB-435, 72 h) [µM] | IC50 (NIH3T3; Mus musculus, NIH3T3, 72 h) [µM] | IC50 (HCT116 p53+/+; Homo sapiens, HCT-116, 72 h) [µM] | IC50 (HCT116 p53−/−; Homo sapiens, HCT-116, 72 h) [µM] | IC50 (HCT116 p53−/−) [µM] | IC50 (HEY) [µM] | IC50 (MDA-MB-435; 72 h) | IC50 (HCT116 p53+/+) [µM] | IC50 (NIH3T3; 72 h) [µM]
1 | COC(=O)c1ccc(/C=N/Nc2nc3nonc3nc2Nc2ccccc2F)cc1 [Compound 1] | 10 | 5 | > 10 | > 10 | 10 | – | – | – | – | –
2 | COc1cc(/C=N/Nc2nc3nonc3nc2Nc2ccccc2F)ccc1O [Compound 3] | 5 | > 10 | > 10 | > 10 | > 10 | – | – | – | – | –
3 | COc1ccc(/C=N/Nc2nc3nonc3nc2Nc2ccc(F)cc2)cc1Br [Compound 4] | 10 | 10 | 6 | 4 | 3 | 2 | – | – | – | –
4 | Brc1ccc(/C=N/Nc2nc3nonc3nc2Nc2cccc(Br)c2)cc1 [Compound 5] | 2 | > 10 | 1 | 2 | 1.1 | 1.2 | 3 | – | – | –
5 | Oc1ccc(Br)cc1/C=N/Nc1nc2nonc2nc1Nc1ccc(Cl)cc1 [Compound 6] | < 3 | < 3 | 2 ± 0.5 | < 3 | < 3 | 1.6 ± 0.7 | 1.6 ± 0.6 | 4 ± 1 µM | 2.7 ± 0.6 | –
6 | COc1cc(/C=N/Nc2nc3nonc3nc2Nc2ccc(Cl)cc2)ccc1O [Compound 7] | 2 | > 10 | > 10 | > 10 | 5.5 | – | – | – | – | –
7 | Cc1ccccc1Nc1nc2nonc2nc1N/N=C/c1cc(Br)ccc1O [Compound 8] | 5 | > 10 | > 10 | 2 | 1.1 ± 0.4 | – | – | – | – | –
8 | COc1ccc(/C=N/Nc2nc3nonc3nc2Nc2ccccc2OC)cc1Br [Compound 9] | > 10 | > 20 | > 10 | > 20 | > 10 | – | – | – | – | –
9 | COc1ccccc1Nc1nc2nonc2nc1N/N=C/c1ccccc1F [Compound 10] | > 10 | > 10 | > 10 | > 10 | > 10 | – | – | – | – | –
10 | CCOC(=O)c1ccc(Nc2nc3nonc3nc2N/N=C/c2cccc3ccccc23)cc1 [Compound 11] | 4 | > 10 | 2 | > 10 | 2 | – | – | – | – | –
11 | Cc1ccccc1Nc1nc2nonc2nc1N/N=C/c1cccc2ccccc12 [Compound 12] | > 10 | > 10 | 10 | > 10 | 10 | – | – | – | – | –
12 | O=C(O)c1cc(-c2ccc(C=NNc3nc4nonc4nc3Nc3ccc(F)cc3)o2)ccc1Cl [Compound 13] | > 10 | > 10 | 10 | > 10 | 7 | – | – | – | – | –
13 | O=C(O)c1cc(-c2ccc(/C=N/Nc3nc4nonc4nc3Nc3ccccc3F)o2)ccc1Cl [Compound 14] | 10 | > 10 | > 10 | > 10 | 7 | – | – | – | – | –
14 | O=C(O)c1cccc(-c2ccc(C=NNc3nc4nonc4nc3Nc3ccc(F)cc3)o2)c1 [Compound 15] | – | < 3 | 10 | – | – | – | – | 2.8 µM and 3 µM | – | –
15 | Cc1cc(-c2ccc(/C=N/Nc3nc4nonc4nc3Nc3ccccc3F)o2)c(C)c([N+](=O)[O-])c1 [Compound 16] | 0.8 | 4 | 2 | 1.5 | 0.8 ± 0.1 | – | – | – | – | –
16 | O=C(O)c1cc(-c2ccc(/C=N/Nc3nc4nonc4nc3Nc3ccccc3F)o2)ccc1Cl [Compound 17] | – | – | – | – | – | > 10 | 15 | > 20 µM | 7 ± 1 | > 10
17 | O=C(O)c1cc(-c2ccc(C=NNc3nc4nonc4nc3Nc3cccc(Br)c3)o2)ccc1O [Compound 18] | > 10 | > 10 | 11 | > 10 | > 10 | – | – | – | – | –

Row | SMILES | IC50 (HEY; Homo sapiens) [µM] | IC50 (MDA-MB-435; Homo sapiens, MDA-MB-435, 72 h) [µM] | IC50 (NIH3T3; Mus musculus, NIH3T3, 72 h) [µM] | IC50 (HCT116 p53+/+; Homo sapiens, HCT-116, 72 h) [µM] | IC50 (HCT116 p53−/−; Homo sapiens, HCT-116, 72 h) [µM] | IC50 (HCT116 p53−/−) [µM] | IC50 (HEY) [µM] | IC50 (MDA-MB-435; 72 h) | IC50 (HCT116 p53+/+) [µM] | IC50 (NIH3T3; 72 h) [µM]
18 | Cc1cccc(Nc2nc3nonc3nc2NN=Cc2ccc(-c3cccc(C(=O)O)c3)o2)c1 [Compound 20] | 8 | > 10 | 10 | > 10 | > 10 | – | – | – | – | –
19 | c1coc(CNc2nc3nonc3nc2NCc2ccco2)c1 [Compound 21] | > 20 | > 20 | > 10 | > 20 | > 10 | – | – | – | – | –
20 | O=C(O)c1ccccc1Nc1nc2nonc2nc1Nc1ccccc1C(=O)O [Compound 22] | > 10 | > 10 | > 10 | > 10 | > 10 | – | – | – | – | –
21 | c1cc(N2CCOCC2)ccc1Nc1nc2nonc2nc1Nc1ccc(N2CCOCC2)cc1 [Compound 23] | > 10 | > 10 | > 10 | > 10 | > 10 | – | – | – | – | –
22 | C1C2CC3CC1CC(C2)C3Nc1nc2nonc2nc1NC1C2CC3CC(C2)CC1C3 (stereo not shown) [Compound 24] | 8 ± 1.7 | 9 | 9 | 6 | 9 ± 1 | – | – | – | 8 | –
23 | CCCn1c(=O)c(C(=O)NNC(=O)COc2ccccc2)c(O)c2ccccc21 [Compound 25] | > 10 | > 20 | > 10 | 10 | > 10 | – | – | – | – | –
24 | CCCCCCc1nc2ccccc2c(=O)n1NC(=O)c1c(O)c2ccccc2n(CC)c1=O [Compound 26] | 20 | > 20 | 20 | > 20 | > 10 | – | – | – | – | –
25 | CCCc1nc2ccccc2c(=O)n1NC(=O)c1c(O)c2cccc3c2n(c1=O)CCC3 [Compound 27] | > 20 | > 20 | 12 | > 20 | > 10 | – | – | – | – | –
26 | O=C(Nn1c(Cc2ccccc2)nc2ccccc2c1=O)c1c(O)c2cccc3c2n(c1=O)CCC3 [Compound 28] | 19 | > 10 | > 10 | > 20 | > 10 | – | 15 | – | – | –
27 | CCCn1c(=O)c(C(=O)Nc2nnc(CC(C)C)s2)c(O)c2ccccc21 [Compound 29] | > 20 | > 20 | > 10 | > 20 | > 10 | – | – | – | – | –
28 | CCCCn1c(=O)c(C(=O)Nc2nnc(C)s2)c(O)c2ccccc21 [Compound 30] | 10 | 7 | 5 | 6 ± 3 | 8 | – | 14 | – | – | –
29 | C=CCn1c(=O)c(C(=O)Nc2nc(CC(=O)OCC)cs2)c(O)c2ccccc21 [Compound 31] | > 10 | > 10 | > 10 | 20 | > 10 | – | – | – | – | –
30 | CCCCn1c(=O)c(C(=O)Nc2nc(CC(=O)OCC)cs2)c(O)c2ccccc21 [Compound 32] | 15 | 20 | 8 | 10 ± 1 | > 10 | – | – | – | – | –
31 | C/C(=N\C(=N)Nc1nc(C)c2cc(C)ccc2n1)c1ccccc1C(=O)O [Compound 33] | 5 | 17 | 14 | 18 | 5 | – | 3 | 18 µM | – | –
32 | CCOc1ccc2nc(NC(=N)/N=C(\C)c3ccccc3C(=O)O)nc(C)c2c1 [Compound 34] | 7 | > 20 | > 10 | 20 | 10 | – | – | – | – | –
33 | COC(=O)/C=C1/N=C(Nc2nc3cc(C)ccc3o2)NC1=O [Compound 35] | 3.5 | 6 | 11 | 5 | 4.2 | 3.4 | 2 | – | – | 6

Reference: patent publication US8445677B2, “Substituted pyrimidyl guanidine derivatives having anticancer activity” (University of Southern California, priority 2008, dated 2013)
